Where two headings read alike, the source gives them in different places.
Experiments:
platelets (GP IIb/IIIa) = assay: Platelet aggregation in platelet-rich plasma (turbidimetric); assay type: cell-based; conditions: 1:1 mixture of E- and Z-stereoisomers, read-out: IC50 for inhibition of platelet aggregation in PRP
Procedure: Platelet aggregation was measured turbidimetrically on a standard platelet aggregometer equipped with a recorder. Samples of platelet-rich plasma (PRP) were standardized with respect to the cell density (3×10^8per ml); maximal light transmission (LT) was calibrated with platelet-poorplasma (PPP). Aliquots of PRP (0.25 ml in glass cuvettes) were stirred in the cell of the device (1000 rpm, 37° C.) with Ajoene (0-100 micromoles per liter final concentration) for 1 min., followed by addition of the aggregation stimuli. (Unless specified otherwise, all the experiments described in this Application were performed with Ajoene that represented a 1:1 mixture of E- and Z-stereoisomers.) LT increments were traced for 5 min. Maximal rate of aggregation was derived from the slope of each curve; IC50 for Ajoene was determined by a method such as that described in Vrzheshch, et al., Cell Response Kinetics: the Phenomenon of Supercooperativity in Aggregation of Human Platelets, 66 Thrombos. Res. 537, 1992.
The requirement of integrins for the formation of cell-to-cell contacts in each of these systems has long been established. It is known that in platelets the relevant integrin is GP IIb/IIIa (β3). […]

H9 cells = assay: Disruption of cell clusters formed by H9 cells in culture; assay type: cell-based; conditions: Homo sapiens, 16 to 24 h
Procedure: T-lymphocytic H9 and Jurkat cells were maintained as suspension cultures in RPMI-1640 medium supplemented with 10% (v/v) heat-inactivated fetal calf serum, 50 micrograms/ml gentamycin and 2 mM L-glutamine. To assess the effects of Ajoene on adhesive interactions of the cells, H9 cells or Jurkat cells were seeded in 96-well flat-bottomed plates (3×10^5cells per well) and cultured in the presence of log 10 dilutions of Ajoene (experiment) or its vehicle (control) for 16 to 24 h.
The requirement of integrins for the formation of cell-to-cell contacts in each of these systems has long been established. It is known that in platelets the relevant integrin is GP IIb/IIIa (β3). Neutrophil aggregation is underlain by interactions of β2 integrins (e.g., LFA-1 and/or Mac-1) with their surface counterstructures, while cohesion of T-cells is supported by both β2 integrins and fibronectin-binding β1 integrins (e.g., VLA-4 and VLA-5).

LFA-1 (ICAM-1) = assay: Adhesion of TPA-activated Jurkat cells to SVT2/ICAM-1 monolayers; assay type: cell-based; conditions: Homo sapiens, 0.75 h, SVT2/ICAM-1, TPA 125 ng/ml, 45 min
Procedure: SVT2 cells transfected with human ICAM-1 or VCAM-1 (SVT2/ICAM-1 and […], respectively) were plated into 96-well plates and cultured overnight. […] The labeled Jurkat cells were washed three times and resuspended at a density of 4×10^6 cells/ml in complete RPMI medium. Serial dilutions of Ajoene were prepared in complete RPMI medium. Aliquots of the cells (0.5 ml) were then mixed with an equal volume of Ajoene dilutions (1:1 v/v), and the mixtures incubated at 37° C. for 30 min. Thereafter, Ajoene-incubated cells were added in duplicate to SVT2/ICAM-1 and SVT2/VCAM-1 monolayers, and TPA was introduced into each well to the final concentration of 125 ng/ml. The plates were incubated at 37° C. for 45 min, after which the non-adherent cells were removed by washing with warm complete RPMI medium. The bound labeled cells were lysed by adding 1% Triton X-100 solution in 0.1 N HCl. The lysates were assayed in a gamma counter to determine the percentage of bound cells. […] Thus, coculturing of Jurkat cells with SVT2/ICAM-1 and SVT2/VCAM-1 cells makes it possible to assess, respectively, the function of IFA-1 and VLA-4 under identical conditions. In the absence of TPA, 10 and 20% of the added Jurkat cells adhered to SVT2/ICAM-1 and SVT2/VCAM-1 cells, respectively. […]

[1] = tested on: H9RF cells / H9 cells (HIV-1RF); assay: HIV-induced syncytium formation, H9RF donor with H9 recipient; assay type: cell-based
Description: For curve 1, the effect of Ajoene on the fusion of cultured, intact H9 cells with HIV infected H9RF cells is disclosed. For this curve, the vertical graph axis pertains to the maximum amount of syncytia formed in the absence of Ajoene (100 percent), while the points on line 1 represent percentages of such an amount of syncytia formed in the presence of varying concentrations of Ajoene (micromoles per liter).
Chronically infected and uninfected cell lines (HIV donors and targets, respectively) were maintained as suspension cultures in RPNI-1640 medium supplemented with 10% (v/v) heat-inactivated fetal calf serum, 50 micrograms/ml gentamycin and 2 mM L-glutamine. HIV donors used were (1) a cloned population of H9 cells harboring the genome of HIV-1RF (H9RF cells); and (2) a cloned population of SupT1 cells harboring the genome of HIV-1LAV-BRU (SupT1LAV-BRU cells). To assess the effect of Ajoene on syncytium formation, the donors were mixed with their respective recipients, H9 and SupT1, at a ratio of 1:2 in 96-well flat-bottomed plates (3×10^5 cells per well). Log 10 dilutions of Ajoene were then introduced into the wells, and the cells were cocultured for 16 h. Control wells received the vehicle of Ajoene. By the end of the incubation period syncytia were counted, and the values of IC50 for Ajoene were calculated by plotting relative amounts of syncytia (percent of the syncytia formed in the absence of the compound) against Ajoene concentration.

sperm cells = assay type: cell-based, human; conditions: 200 micromoles per l
Procedure: Human sperm was from a donor with known fertility (No. 113). The sample (freshly taken) was allowed to liquefy, was diluted 3:1 with BWW/HSA, was centrifuged at 325×g for 5 minutes, and was washed once with the same medium. A small portion of the original sample was analyzed (computer-assisted sperm analysis) using the Cell-Soft package. The pellet of washed sperm cells was subjected to the swim-up procedure (1 ml of the medium was added for this purpose). The swim-up was collected (about 0.5 ml), the cells were counted (Makler chamber), and their motility determined (%). The volume of the sample was adjusted with the medium to give 10^7 cells per ml, and the samples were incubated overnight (18 hours) at 37° C. for capacitation. Thereafter, motility and cell density were determined once again, and the sample was divided into three equal portions, each to be subjected to appropriate treatment.
Equivalent volumes of ethanol and BWW/HSA were added to the two control portions of each cell type (vehicle control and untreated cells, respectively).

`C=CCSSC=CC[S+]([O-])CC=C` (centres unmarked) [Ajoene, 4,5,9-trithiadodeca-1,6,11-triene-9-oxide] gave an IC50 (platelets (GP IIb/IIIa)) of roughly 50 µM, an IC50 (H9 cells) of roughly 0.05 µM and an IC50 (LFA-1 (ICAM-1)) of 10 µM. The “syncytia found (FIG. 1, curve 1)” value ([1]; 50 micromoles of Ajoene per liter) was “Essentially no syncytia were found”, the IC50 ([1]; Human immunodeficiency virus 1, H9, 16 h incubation, both donor/recipient systems, read-out: IC50 range for fusion and syncytium formation) was 0.005 to 0.05 µM and the IC50 ([1]; Human immunodeficiency virus 1, H9RF donor, H9 recipient, 16 h, read-out: IC50 of Ajoene, syncytium formation) was roughly 0.05 µM. The IC50 ([1]; Human immunodeficiency virus 1, H9 with H9RF cells, read-out: IC50 of syncytium formation (FIG. 1, curve 1)) was 0.045 µM and the “toxicity or impaired cellular vitality (motility of sperm cells)” value (sperm cells) was “not associated with toxicity or impaired cellular vitality”.

— US6177475A, “Methods of using integrin modulators for treatment of inflammation” (priority 1997, dated 2001)
